Data reported in US8716284B2, “Adamantyl diamide derivatives and uses of same” (H. Lundbeck A/S, priority 2008, dated 2014).

The molecules below were run against T1, rat metabotropic glutamate receptor 5 (mGluR5) (Rattus norvegicus, UniProt P31424) (assay: Calcium mobilization assay (FLIPR) for negative or positive allosteric activity, HEK 293 cells). Details: HEK293, negative allosteric modulation, inhibition of EC80 glutamate response; read-out: FLIPR maximum inhibition.
T1 construct: expressed in transfected cells; host or cells: HEK 293
T1 sequence (P31424 21-1171 isoform P31424-2 limits assumed): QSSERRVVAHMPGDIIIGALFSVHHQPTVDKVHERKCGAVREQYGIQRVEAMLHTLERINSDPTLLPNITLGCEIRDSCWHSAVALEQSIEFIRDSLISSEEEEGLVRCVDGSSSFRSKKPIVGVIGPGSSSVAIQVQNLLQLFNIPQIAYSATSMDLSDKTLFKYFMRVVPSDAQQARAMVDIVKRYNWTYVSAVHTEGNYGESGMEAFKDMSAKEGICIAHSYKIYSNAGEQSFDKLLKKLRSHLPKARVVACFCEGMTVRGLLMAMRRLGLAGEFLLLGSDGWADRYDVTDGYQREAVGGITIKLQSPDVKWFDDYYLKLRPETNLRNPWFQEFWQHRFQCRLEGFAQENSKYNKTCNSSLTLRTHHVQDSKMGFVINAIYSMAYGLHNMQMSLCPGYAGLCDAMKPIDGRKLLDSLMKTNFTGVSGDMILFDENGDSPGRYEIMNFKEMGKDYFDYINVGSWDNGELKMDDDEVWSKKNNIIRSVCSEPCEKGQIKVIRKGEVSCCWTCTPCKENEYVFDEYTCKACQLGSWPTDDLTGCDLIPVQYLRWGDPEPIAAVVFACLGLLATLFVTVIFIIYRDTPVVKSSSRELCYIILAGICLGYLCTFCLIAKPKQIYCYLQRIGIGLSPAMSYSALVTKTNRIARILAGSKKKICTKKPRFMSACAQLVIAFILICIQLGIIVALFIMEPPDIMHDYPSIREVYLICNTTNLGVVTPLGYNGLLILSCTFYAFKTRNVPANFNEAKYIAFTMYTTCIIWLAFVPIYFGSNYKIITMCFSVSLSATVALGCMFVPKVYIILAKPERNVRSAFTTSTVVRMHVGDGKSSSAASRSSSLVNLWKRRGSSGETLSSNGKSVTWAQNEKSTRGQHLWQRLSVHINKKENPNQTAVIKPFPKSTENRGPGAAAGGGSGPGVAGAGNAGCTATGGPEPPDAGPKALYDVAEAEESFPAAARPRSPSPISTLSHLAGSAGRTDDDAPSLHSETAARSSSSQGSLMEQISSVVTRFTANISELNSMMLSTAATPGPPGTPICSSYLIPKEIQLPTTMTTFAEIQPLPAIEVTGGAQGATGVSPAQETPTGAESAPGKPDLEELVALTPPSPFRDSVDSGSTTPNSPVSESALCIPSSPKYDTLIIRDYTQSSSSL
Type: cell-based
Summary of the method: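 Peak Fluo-4 calcium signal over 3 min at room temperature, minus basal, fitted by Hill equation, in stable rat mGluR5 HEK 293 cells (HBSS/HEPES pH 7.4, BSA, probenecid). Inhibition scored against EC80 glutamate, potentiation against EC20 glutamate, glutamate given with compound.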
Work on `COCCN(C)c1cccc(C(=O)NC23CC4CC(CC(NC(=O)c5ccccn5)(C4)C2)C3)n1` [Example 225, 6-[(2-Methoxy-ethyl)-methyl-amino]-pyridine-2-carboxylic acid {3-[(pyridine-2-carbonyl)-amino]-adamantan-1-yl}-amide] yielded an Emax of 63 to 99%.
`O=C(NC12CC3CC(C1)CC(NC(=O)c1cccc(N4CCC(O)C4)n1)(C3)C2)c1cccc(F)c1` (centres unmarked) [Example 219, 6-(3-Hydroxy-pyrrolidin-1-yl)-pyridine-2-carboxylic acid [3-(3-fluoro-benzoylamino)-adamantan-1-yl]-amide] showed an Emax of 63 to 99%.
In the case of `Cc1cccc(C(=O)NC23CC4CC(C2)CC(NC(=O)c2cn5c(C)cccc5n2)(C4)C3)n1` [Example 55, 5-Methyl-imidazo[1,2-a]pyridine-2-carboxylic acid {3-[(6-methyl-pyridine-2-carbonyl)-amino]-adamantan-1-yl}-amide], the Emax is reported as 63 to 99%.
Work on `Cc1ccnc(C(=O)NC23CC4CC(C2)CC(NC(=O)c2cc(C)ccn2)(C4)C3)c1` [Example 11, N,N′-(1,3-Adamantylene)bis(4-methyl-pyridine-2-carboxamide)] yielded an Emax of 63 to 99%.
Molecule `Cc1ccc2nc(C(=O)NC34CC5CC(CC(NC(=O)c6cccc(C)n6)(C5)C3)C4)cn2c1` [Example 54, 6-Methyl-imidazo[1,2-a]pyridine-2-carboxylic acid {3-[(6-methyl-pyridine-2-carbonyl)-amino]-adamantan-1-yl}-amide] has an Emax of 63 to 99%.
Work on `CC(=O)NCCNc1cccc(C(=O)NC23CC4CC(CC(NC(=O)c5cccc(C)n5)(C4)C2)C3)n1` [Example 234, 6-(2-Acetylamino-ethylamino)-pyridine-2-carboxylic acid {3-[(6-methyl-pyridine-2-carbonyl)-amino]-adamantan-1-yl}-amide] yielded an Emax of 63 to 99%.
For `Cc1cccc(C(=O)NC23CC4CC(C2)CC(NC(=O)c2cncc(C)n2)(C4)C3)n1` [Example 21, 6-Methyl-pyrazine-2-carboxylic acid {3-[(6-methyl-pyridine-2-carbonyl)-amino]-adamantan-1-yl}-amide], the Emax was 63 to 99%.
Work on `O=C(NC12CC3CC(C1)CC(NC(=O)c1ccc4nccn4c1)(C3)C2)c1cccc(F)c1` [Example 101, Imidazo[1,2-a]pyridine-6-carboxylic acid [3-(3-fluoro-benzoylamino)-adamantan-1-yl]-amide] yielded an Emax of 63 to 99%.
In the case of `Cc1ccc2nc(C(=O)NC34CC5CC(CC(NC(=O)c6cccc(F)c6)(C5)C3)C4)cn2c1` [Example 102, 6-Methyl-imidazo[1,2-a]pyridine-2-carboxylic acid [3-(3-fluoro-benzoylamino)-adamantan-1-yl]-amide], the Emax is reported as 63 to 99%.
Work on `Cc1cncc(C(=O)NC23CC4CC(C2)CC(NC(=O)c2cccc(F)n2)(C4)C3)n1` [Example 164, 6-Methyl-pyrazine-2-carboxylic acid {3-[(6-fluoro-pyridine-2-carbonyl)-amino]-adamantan-1-yl}-amide] yielded an Emax of 63 to 99%.
`O=C(NC12CC3CC(C1)CC(NC(=O)c1cccc(Cl)c1)(C3)C2)c1cccc(Cl)c1` [Example 3, N,N′-(1,3-adamantylene)bis(3-chloro-benzamide)] was tested, and the Emax was 90 to 99%.
For `CCOc1cc(C(=O)NC23CC4CC(C2)CC(NC(=O)c2cncc(C)n2)(C4)C3)ccn1` [Example 155, 6-Methyl-pyrazine-2-carboxylic acid {3-[(2-ethoxy-pyridine-4-carbonyl)-amino]-adamantan-1-yl}-amide], the Emax was 70 to 99%.
Molecule `Cc1cccc(C(=O)NC23CC4CC(C2)CC(NC(=O)c2ccno2)(C4)C3)n1` [Example 31, 6-Methyl-pyridine-2-carboxylic acid {3-[(isoxazole-5-carbonyl)-amino]-adamantan-1-yl}-amide] has an Emax of 63 to 99%.
For `CN(C)CCCN(C)c1cccc(C(=O)NC23CC4CC(CC(NC(=O)c5cccc(F)c5)(C4)C2)C3)n1` [Example 243, 6-[(3-Dimethylamino-propyl)-methyl-amino]-pyridine-2-carboxylic acid [3-(3-fluoro-benzoylamino)-adamantan-1-yl]-amide], the Emax was 63 to 99%.
`Cc1cccc(C(=O)NC23CC4CC(CC(NC(=O)c5cccnc5)(C4)C2)C3)n1` [Example 115, 6-Methyl-pyridine-2-carboxylic acid {3-[(pyridine-3-carbonyl)-amino]-adamantan-1-yl}-amide] was tested, and the Emax was 70 to 99%.
`Cc1cccc(C(=O)NC23CC4CC(CC(NC(=O)c5ccc6c(c5)OCCO6)(C4)C2)C3)n1` [Example 124, 6-Methyl-pyridine-2-carboxylic acid {3-[(2,3-dihydro-benzo[1,4]dioxine-6-carbonyl)-amino]-adamantan-1-yl}-amide] showed an Emax of 70 to 99%.
With `O=C(NC12CC3CC(C1)CC(NC(=O)c1cccc(-n4ccnc4)n1)(C3)C2)c1ccccn1` [Example 253, 6-Imidazol-1-yl-pyridine-2-carboxylic acid {3-[(pyridine-2-carbonyl)-amino]-adamantan-1-yl}-amide] the Emax was 63 to 99%.
For `Cc1cccc(C(=O)NC23CC4CC(C2)CC(NC(=O)c2cccc(CC#N)n2)(C4)C3)n1` [Example 25, 6-Cyanomethyl-pyridine-2-carboxylic acid {3-[(6-methyl-pyridine-2-carbonyl)-amino]-adamantan-1-yl}-amide], the Emax was 63 to 99%.
With `NC(=O)[C@@H]1CCCN1c1cccc(C(=O)NC23CC4CC(CC(NC(=O)c5cccc(F)c5)(C4)C2)C3)n1` [Example 251, 6-((S)-2-Carbamoyl-pyrrolidin-1-yl)-pyridine-2-carboxylic acid [3-(3-fluoro-benzoylamino)-adamantan-1-yl]-amide] the Emax was 63 to 99%.
For `Cc1cccc(C(=O)NC23CC4CC(C2)CC(NC(=O)c2nccs2)(C4)C3)n1` [Example 40, 6-Methyl-pyridine-2-carboxylic acid {3-[(thiazole-2-carbonyl)-amino]-adamantan-1-yl}-amide], the Emax was 63 to 99%.
Work on `NC(=O)[C@@H]1CCCN1c1cccc(C(=O)NC23CC4CC(CC(NC(=O)c5ccccn5)(C4)C2)C3)n1` [Example 230, 6-((S)-2-Carbamoyl-pyrrolidin-1-yl)-pyridine-2-carboxylic acid {3-[(pyridine-2-carbonyl)-amino]-adamantan-1-yl}-amide] yielded an Emax of 63 to 99%.
`O=C(NC12CC3CC(C1)CC(NC(=O)c1cccc(NCCCO)n1)(C3)C2)c1ccccn1` [Example 203, 6-(3-Hydroxy-propylamino)-pyridine-2-carboxylic acid {3-[(pyridine-2-carbonyl)-amino]-adamantan-1-yl}-amide] gave an Emax of 63 to 99%.
For `O=C(NC12CC3CC(C1)CC(NC(=O)c1cccc(N4CCC(O)CC4)n1)(C3)C2)c1cccc(F)c1` [Example 218, 4-Hydroxy-3,4,5,6-tetrahydro-2H-[1,2′]-bipyridinyl-6′-carboxylic acid [3-(3-fluoro-benzoylamino)-adamantan-1-yl]-amide], the Emax was 63 to 99%.
Work on `Cc1cccc(C(=O)NC23CC4CC(C2)CC(NC(=O)c2cccc(N)n2)(C4)C3)n1` [Example 117, 6-Methyl-pyridine-2-carboxylic acid {3-[(6-aminopyridine-2-carbonyl)-amino]-adamantan-1-yl}-amide] yielded an Emax of 70 to 99%.
`CN(C)CCN(C)c1cccc(C(=O)NC23CC4CC(CC(NC(=O)c5ccccn5)(C4)C2)C3)n1` [Example 227, 6-[(2-Dimethylamino-ethyl)-methyl-amino]-pyridine-2-carboxylic acid {3-[(pyridine-2-carbonyl)-amino]-adamantan-1-yl}-amide] gave an Emax of 63 to 99%.
For `COCCCNc1cccc(C(=O)NC23CC4CC(CC(NC(=O)c5cccc(F)c5)(C4)C2)C3)n1` [Example 241, 6-(3-Methoxy-propylamino)-pyridine-2-carboxylic acid [3-(3-fluoro-benzoylamino)-adamantan-1-yl]-amide], the Emax was 63 to 99%.
Work on `Cn1ccc(C(=O)NC23CC4CC(CC(NC(=O)c5cccc(F)c5)(C4)C2)C3)n1` [Example 97, 1-Methyl-1H-pyrazole-3-carboxylic acid [3-(3-fluoro-benzoylamino)-adamantan-1-yl]-amide] yielded an Emax of 63 to 99%.
For `O=C(NC12CC3CC(C1)CC(NC(=O)c1ccc(F)cn1)(C3)C2)c1ccccn1` [Example 111, 5-Fluoro-pyridine-2-carboxylic acid {3-[(pyridine-2-carbonyl)-amino]-adamantan-1-yl}-amide], the Emax was 70 to 99%.
Work on `O=C(NC12CC3CC(C1)CC(NC(=O)c1cccs1)(C3)C2)c1cccs1` [Example 14, N,N′-(1,3-adamantylene)bis(thiophene-2-carboxamide)] yielded an Emax of 63 to 99%.
`Cn1ccc(C(=O)NC23CC4CC(C2)CC(NC(=O)c2ccn(C)n2)(C4)C3)n1` [Example 17, N,N′-(1,3-Adamantylene)bis(1-methyl-1H-pyrazole-3-carboxamide)] gave an Emax of 63 to 99%.
In the case of `Cc1cncc(C(=O)NC23CC4CC(CC(NC(=O)c5cncc(Cl)c5)(C4)C2)C3)n1` [Example 170, 6-Methyl-pyrazine-2-carboxylic acid {3-[(5-chloro-pyridine-3-carbonyl)-amino]-adamantan-1-yl}-amide], the Emax is reported as 63 to 99%.
Work on `Cc1cccc(C(=O)NC23CC4CC(C2)CC(NC(=O)c2cn5ccccc5n2)(C4)C3)n1` [Example 52, Imidazo[1,2-a]pyridine-2-carboxylic acid {3-[(6-methyl-pyridine-2-carbonyl)-amino]-adamantan-1-yl}-amide] yielded an Emax of 63 to 99%.
`Cc1ccn2cc(C(=O)NC34CC5CC(CC(NC(=O)c6cccc(C)n6)(C5)C3)C4)nc2c1` [Example 56, 7-Methyl-imidazo[1,2-a]pyridine-2-carboxylic acid {3-[(6-methyl-pyridine-2-carbonyl)-amino]-adamantan-1-yl}-amide] gave an Emax of 63 to 99%.

Same assay, conditions: positive modulation, increase in EC20 glutamate response
For `Cc1cncc(C(=O)NC23CC4CC(CC(NC(=O)c5cc(-c6ccc(F)cc6)ncn5)(C4)C2)C3)n1` [Example 256, 6-(4-Fluoro-phenyl)-pyimidine-4-carboxylic acid {3-[(6-methyl-pyrazine-2-carbonyl)-aminpo]-adamantan-1-yl}-amide], the EC50 was 300 nM and the maximum modulation was 170%.
